From patent US6903235B2, “Pharmaceutical-grade ferric citrate” (Panion & BF Biotech Inc., priority 2003, dated 2005) come the findings set out here.

This data set is described as follows: Stability of the product at 40° C. / 75% RH (ferric citrate assay and ferric assay by titration). Particulars: Temperature 40° C. ± 2° C., Humidity 75% ± 5% RH. The class given is physicochemical. Here is the method:
1.1.3. Stability of the Product
0.5 g of ferric citrate, accurately weighed, in 100 mL of water and 5 mL of hydrochloric acid were added in a flask on a water bath until dissolved. 3 g of potassium iodide and 5 mL of hydrochloric acid were added to the flask to form a mixture, and a stopper was inserted in the flask. The mixture was allowed to stand for 15 minutes, and the librated iodine was titrated with 0.1 N sodium thiosulfate solution using a starch test solution as an indicator. A blank test was performed with the same quantities of reagents and in the same manner, and corrections were made if necessary. Each milliliter of 0.1 N sodium thiosulfate is equivalent to 24.496 mg of FeC6H5O7 and each milliliter of 0.1 N sodium thiosulfate is equivalent to 5.585 mg of Iron(III).

Consider ferric citrate [FeC6H5O7 product], for which the Ferric assay is, setting by setting: (1st month) 17.68%; (2nd month) 17.66%; (3rd month) 17.70%; (6th month) 17.81%; (Initial) 17.69%. Moreover, the Ferric citrate assay is reported as 99.65% (1st month); 99.58% (2nd month); 99.79% (3rd month); 100.37% (6th month); 99.70% (Initial).
